Source: patent US20240382494A1, “THERAPEUTIC COMPOUNDS” (priority 2023, published 2024)
Like-named read-outs stand apart in the source and are kept apart here.

Tests used:
SARS-CoV-2 PLpro = SARS-CoV-2 PLpro (Severe acute respiratory syndrome coronavirus 2, UniProt P0DTD1); test: FRET-based PLpro enzymatic assay; format: biochemical
Outline: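 200 nM PLpro in 50 mM Hepes pH 7.5, 0.01% Triton X-100, 5 mM DTT, preincubated with compound 30 min at 30 °C; 10 μM final FRET substrate.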

[1] = Cytotoxicity assay in Vero E6 cells (neutral red uptake); format: cell-based; conditions: African green monkey
[2] = system: SARS-CoV-2 viral replication; conditions: cited from earlier work
[3] = 200 nM PLpro, 10 μM FRET substrate, 30 min preincubation at 30° C., read-out: IC50
[4] = Vero E6 cells, 2 days at 37° C., neutral red uptake, read-out: Vero CC50

`Cc1ccc(N2CC3CCC(C2)N3C)cc1C(=O)N[C@H](C)c1cc(-c2ccn(C)n2)nc2ccccc12` [Example 102, 2-methyl-N—((R)-1-(2-(1-methyl-1H-pyrazol-3-yl)quinolin-4-yl)ethyl)-5-(8-methyl-3,8-diazabicyclo[3.2.1]octan-3-yl)benzamide] showed an IC50 (SARS-CoV-2 PLpro) of under 0.5 µM and a CC50 at 2 days [1] of 15.2 ± 1.09 µM.

`Cc1ccc(N2C[C@H]3CN(C)C[C@H]3C2)cc1C(=O)N[C@H](C)c1cc(-c2ccn(C)n2)nc2ccccc12` [Example 103, 2-methyl-N—((R)-1-(2-(1-methyl-1H-pyrazol-3-yl)quinolin-4-yl)ethyl)-5-((3aR,6aS)-5-methylhexahydropyrrolo[3,4-c]pyrrol-2(1H)-yl)benzamide] gave an IC50 (SARS-CoV-2 PLpro; [3]) of under 0.5 µM and a CC50 at 2 days [1, 4] of 27.3 ± 1.74 µM.

`CCn1ccc(-c2cc([C@@H](C)NC(=O)c3cc(N4CCN(C)[C@H](C)C4)ccc3C)c3ccccc3n2)n1` [Example 104, 5-((R)-3,4-dimethylpiperazin-1-yl)-N—((R)-1-(2-(1-ethyl-1H-pyrazol-3-yl)quinolin-4-yl)ethyl)-2-methylbenzamide] showed an IC50 (SARS-CoV-2 PLpro; [3]) of under 0.5 µM and a CC50 at 2 days [1, 4] of 30.5 ± 2.21 µM.

`CCn1ccc(-c2cc([C@@H](C)NC(=O)c3cc(N4CC5CCC(C4)N5C)ccc3C)c3ccccc3n2)n1` [Example 106, N—((R)-1-(2-(1-ethyl-1H-pyrazol-3-yl)quinolin-4-yl)ethyl)-2-methyl-5-(8-methyl-3,8-diazabicyclo[3.2.1]octan-3-yl)benzamide] gave an IC50 (SARS-CoV-2 PLpro) of under 0.5 µM and a CC50 at 2 days [1] of 31.3 ± 7.45 µM.

With `CCn1ccc(-c2cc([C@@H](C)NC(=O)c3cc(N4C[C@H]5C[C@@H]4CN5C)ccc3C)c3ccccc3n2)n1` [Example 107, N—((R)-1-(2-(1-ethyl-1H-pyrazol-3-yl)quinolin-4-yl)ethyl)-2-methyl-5-((1R,4R)-5-methyl-2,5-diazabicyclo[2.2.1]heptan-2-yl)benzamide] the IC50 (SARS-CoV-2 PLpro; [3]) was under 0.5 µM and the CC50 at 2 days [1, 4] was 22.3 ± 1.39 µM.

`CCn1ccc(-c2cc([C@@H](C)NC(=O)c3cc(N4CCN(C)CC4)ccc3C)c3ccccc3n2)n1` [Example 108, (R)—N-(1-(2-(1-ethyl-1H-pyrazol-3-yl)quinolin-4-yl)ethyl)-2-methyl-5-(4-methylpiperazin-1-yl)benzamide] gave an IC50 (SARS-CoV-2 PLpro; [3]) of under 0.5 µM and a CC50 at 2 days [1, 4] of 18.5 ± 1.4 µM.

Work on `CCn1ccc(-c2cc([C@@H](C)NC(=O)c3cc(OC[C@H]4CCCN4C)ccc3C)c3ccccc3n2)n1` [Example 110, N—((R)-1-(2-(1-ethyl-1H-pyrazol-3-yl)quinolin-4-yl)ethyl)-2-methyl-5-(((R)-1-methylpyrrolidin-2-yl)methoxy)benzamide] yielded an IC50 (SARS-CoV-2 PLpro; [3]) of under 0.5 µM and a CC50 at 2 days [1, 4] of 46.3 ± 13.9 µM.

With `Cc1ccc(N2CC3CCC(C2)N3C)cc1C(=O)NC1(c2cc(-c3cnn(C)c3)nc3ccccc23)CC1` [Example 112, 2-methyl-N-(1-(2-(1-methyl-1H-pyrazol-4-yl)quinolin-4-yl)cyclopropyl)-5-(8-methyl-3,8-diazabicyclo[3.2.1]octan-3-yl)benzamide] the IC50 (SARS-CoV-2 PLpro) was under 0.5 µM and the CC50 at 2 days [1] was 53.8 ± 2.52 µM.

For `Cc1ccc(OC[C@@H]2C[C@@H](F)CN2C)cc1C(=O)NC1(c2cc(-c3cnn(C)c3)nc3ccccc23)CC1` [Example 114, 5-(((2S,4R)-4-fluoro-1-methylpyrrolidin-2-yl)methoxy)-2-methyl-N-(1-(2-(1-methyl-1H-pyrazol-4-yl)quinolin-4-yl)cyclopropyl)benzamide], the IC50 (SARS-CoV-2 PLpro; [3]) was under 0.5 µM and the CC50 at 2 days [1, 4] was 51.3 ± 6.52 µM.

Molecule `Cc1ccc(OC[C@@H]2CCN2C)cc1C(=O)NC1(c2cc(-c3cnn(C)c3)nc3ccccc23)CC1` [Example 115, (S)-2-methyl-N-(1-(2-(1-methyl-1H-pyrazol-4-yl)quinolin-4-yl)cyclopropyl)-5-((1-methylazetidin-2-yl)methoxy)benzamide] has an IC50 (SARS-CoV-2 PLpro; [3]) of under 0.5 µM and a CC50 at 2 days [1, 4] of 127 ± 7.89 µM.

For `Cc1ccc(N)cc1C(=O)N[C@H](C)c1cccc2ccccc12` [GRL0617], the EC50 [2] is listed as about 20 µM.
